From patent US12569508B2, “Antimicrobial compositions and methods of use” (priority 2020, dated 2026)

Experiment: Deposition efficiency after nebulisation (Aerogen Pro vibrating mesh nebuliser)
Assay type: physicochemical
Conditions: 100 μL nebulised into 24-well plate
Method: The Aerogen® Pro (vibrating mesh nebuliser) connected to a nebuliser chamber was used to aerosolise unformulated solutions of TOB, and LCNPs loaded with TOB. The nebulisation chamber fitted into the well of a 24-well plate, ensuring the dose was deposited into a single well. Before use, the nebuliser was rinsed twice with 0.9% NaCl. Then each formulation of TOB was tested to ensure an even aerosol was produced. 100 μL of TOB as an unformulated solution, and in MO-LCNPs and PHY-LCNPs was nebulised into the wells of a 24-well plate that contained 200 μL of 0.9% sodium chloride. The total drug concentration was then determined from each well to calculate the total mass deposited. […] The nebulised samples were assessed for particle size and zeta potential, as described above.
For the nebulisation samples and transport studies (see below), TOB was quantified by liquid chromatography tandem mass spectrometry (LC-MS) using a Dionex UltiMate 3000 Binary Rapid Separation LC System (Thermo Scientific, USA) coupled with a TSQ Quantum Access Max (QQQ, Thermo Scientific, USA) and a modified ion-pairing method. […] 3 μL of the samples were injected and quantification was done by ESI+ and the SRM of the ion 468.184→323.960.

With `NC[C@H]1O[C@H](O[C@H]2[C@H](O)[C@@H](O[C@H]3O[C@H](CO)[C@@H](O)[C@H](N)[C@H]3O)[C@H](N)C[C@@H]2N)[C@H](N)C[C@@H]1O` [unformulated TOB, tobramycin] as the molecule, how does the “deposition efficiency of TOB” value read?
Its value is 3.25%.
